Test results as given in patent US20040009534A1, “Protein analysis” (DYAX CORPORATION, priority 2002, published 2004).
Read-outs that look alike come from different tables or passages of the source.

How the values were obtained:
Goat albumin = assay: Dissociation constants (KD) against a panel of albumins; type: binding
Source text: (§1) The binding properties of a ligand that binds a serum protein can be readily assessed using various assay formats. For example, the binding property of a ligand can be measured in solution by fluorescence anisotropy, which provides a convenient and accurate method of determining a dissociation constant (KD) of a binding moiety for a serum albumin from one or more different species. In one such procedure, a binding moiety described herein is labeled with fluorescein. The fluorescein-labeled binding moiety may then be mixed in wells of a multi-well assay plate with various concentrations of a particular species of serum albumin. Fluorescence anisotropy measurements are then carried out using a fluorescence polarization plate reader. The binding interaction between a serum protein and a non-covalently associated compound can be similarly characterized. Other solution measures for studying binding properties include fluorescence resonance energy transfer (FRET) and NMR.

chicken ovalbumin = biological target: T1, chicken ovalbumin (Gallus gallus, UniProt P01012); assay: Dissociation constants (KD) against a panel of albumins, negative control; type: binding; settings: both sets of buffers
T1 sequence (P01012 1-386): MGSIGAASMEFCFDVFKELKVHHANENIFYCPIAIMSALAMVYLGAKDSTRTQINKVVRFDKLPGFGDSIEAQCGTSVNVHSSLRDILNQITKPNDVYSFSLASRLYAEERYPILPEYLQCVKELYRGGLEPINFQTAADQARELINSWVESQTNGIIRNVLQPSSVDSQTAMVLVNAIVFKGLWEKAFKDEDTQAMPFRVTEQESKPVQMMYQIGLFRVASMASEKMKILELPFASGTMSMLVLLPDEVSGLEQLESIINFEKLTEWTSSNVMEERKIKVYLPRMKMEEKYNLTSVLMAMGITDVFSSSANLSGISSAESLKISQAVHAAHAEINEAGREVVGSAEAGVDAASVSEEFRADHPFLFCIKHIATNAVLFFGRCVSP
Source text: as §1
Chicken ovalbumin is not homologous to HSA as determined by sequence alignment analysis.

HSA [1] = biological target: T2, HSA (Homo sapiens, UniProt P02768); assay: HSA binding test of analytical peptide-Sepharose affinity columns; settings: 1 mg HSA injection; for Total Capacity: 0.35 ml column
T2 construct: SwissProt entry: P02768 and/or the following mature
T2 sequence (P02768 25-609): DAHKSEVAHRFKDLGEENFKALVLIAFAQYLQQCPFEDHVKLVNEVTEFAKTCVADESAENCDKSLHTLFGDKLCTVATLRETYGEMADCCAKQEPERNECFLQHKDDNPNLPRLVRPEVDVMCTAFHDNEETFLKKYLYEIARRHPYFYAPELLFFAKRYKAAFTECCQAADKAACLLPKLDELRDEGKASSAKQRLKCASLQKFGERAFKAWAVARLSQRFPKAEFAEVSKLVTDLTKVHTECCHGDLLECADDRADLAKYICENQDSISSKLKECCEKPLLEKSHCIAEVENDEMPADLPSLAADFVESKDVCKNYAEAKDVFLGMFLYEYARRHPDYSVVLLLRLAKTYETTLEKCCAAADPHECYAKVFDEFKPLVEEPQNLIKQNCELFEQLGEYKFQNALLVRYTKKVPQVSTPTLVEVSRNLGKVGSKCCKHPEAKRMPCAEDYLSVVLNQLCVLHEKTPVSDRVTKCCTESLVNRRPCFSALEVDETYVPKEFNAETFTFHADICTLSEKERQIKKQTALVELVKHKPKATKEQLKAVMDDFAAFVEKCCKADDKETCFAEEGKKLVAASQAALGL
Protocol: The immobilization reaction was initiated by the addition of diisopropylethylamine to 2% (vol/vol). After 4 hours of slow mixing on a shaker table at room temperature, the reaction was quenched by the addition of an equal volume of 0.5 M hydroxylamine, pH 8, in water. For those peptides with ivDde-protected internal lysines, the hydroxylamine quench treatment also removed the ivDde-protecting group. To allow for complete protecting group removal, the quenched reaction was allowed to incubate overnight at room temperature. Once quenched and deprotected, the immobilized peptide-Sepharose resin was washed at least 3 times with water to remove solvent and unbound peptide. Non-specifically bound peptide was eluted off the resin by washing the resin at least three times in 30 mM phosphoric acid, pH 2. Since the NHS-Sepharose resin surface becomes negatively charged after hydrolysis, an acidic wash neutralizes the surface and removes any peptides bound non-covalently to the surface via electrostatic interactions. After washing, the resin was resuspended in water as a 50% v/v mixture. A 50 μl aliquot was used to determine the ligand density on the resin by quantitative amino acid analysis. Finally, the resin slurry was packed into 0.35 ml OMNIFIT™ glass columns (3 mm×50 mm) for analytical testing.
Each peptide was immobilized at high density on NHS-Sepharose resin using the procedure outlined above. The peptides were immobilized via a C-terminal lysine. […] Each column was tested for HSA binding (1 mg injection) in binding buffer—3 mM sodium phosphate, 0.1% Tween-20 detergent, pH 6.2.
One milliliter of albumin solution was passed through each column (0.35 ml) previously equilibrated in equilibration buffer. The columns were washed with the same equilibration buffer and then eluted with 100 mM Tris, pH 9.1 (flow rate, 0.5 ml/min for all steps). The column chromatography was carried out using a BIO-RAD BIOLOGIC™ monitoring system (Hercules, Calif.) throughout this testing with absorbance monitoring at 280 nm.

HSA [2] = biological target: T2, HSA; assay: Dissociation constants (KD) against a panel of albumins; type: binding; settings: phosphate, pH 6.2, O M NaCl
Source text: as §1

[3] = biological target: murine serum albumin (MSA) (Mus musculus, UniProt P07724); assay: as above; type: binding
Chain of murine serum albumin (MSA) (P07724 25-608): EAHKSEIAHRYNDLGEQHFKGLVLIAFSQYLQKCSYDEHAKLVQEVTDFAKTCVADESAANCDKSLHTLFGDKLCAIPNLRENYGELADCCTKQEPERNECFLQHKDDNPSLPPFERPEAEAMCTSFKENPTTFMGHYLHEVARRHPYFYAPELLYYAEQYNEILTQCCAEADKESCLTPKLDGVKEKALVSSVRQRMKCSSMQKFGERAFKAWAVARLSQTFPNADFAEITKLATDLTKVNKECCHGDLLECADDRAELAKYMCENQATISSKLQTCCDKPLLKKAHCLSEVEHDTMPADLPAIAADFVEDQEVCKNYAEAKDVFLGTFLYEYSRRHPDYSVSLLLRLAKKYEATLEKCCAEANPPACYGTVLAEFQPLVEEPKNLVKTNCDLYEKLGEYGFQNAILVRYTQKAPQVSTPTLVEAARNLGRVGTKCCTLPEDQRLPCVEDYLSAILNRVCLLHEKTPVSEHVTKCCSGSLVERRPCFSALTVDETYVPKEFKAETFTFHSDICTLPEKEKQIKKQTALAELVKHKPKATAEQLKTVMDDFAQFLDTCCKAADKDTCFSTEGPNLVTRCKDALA
Source text: as §1

human IgG1 = settings: read-out: dissociation constants (KD), cited from earlier work
Chain of human IgG1 (P01857 1-330 isoform P01857-1): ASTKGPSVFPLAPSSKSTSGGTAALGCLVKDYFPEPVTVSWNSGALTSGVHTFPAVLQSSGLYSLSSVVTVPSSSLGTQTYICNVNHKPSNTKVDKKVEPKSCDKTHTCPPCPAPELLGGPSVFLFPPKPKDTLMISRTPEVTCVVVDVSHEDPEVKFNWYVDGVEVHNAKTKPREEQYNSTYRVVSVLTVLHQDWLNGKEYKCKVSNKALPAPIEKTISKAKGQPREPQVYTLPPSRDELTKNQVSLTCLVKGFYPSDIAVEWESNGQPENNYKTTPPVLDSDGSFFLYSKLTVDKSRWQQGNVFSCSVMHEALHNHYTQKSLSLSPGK

human IgG3 = settings: human IgG3, pH 5.7; read-out: dissociation constants (KD); cited from earlier work
Chain of human IgG3 (P01860 1-377 isoform P01860-1): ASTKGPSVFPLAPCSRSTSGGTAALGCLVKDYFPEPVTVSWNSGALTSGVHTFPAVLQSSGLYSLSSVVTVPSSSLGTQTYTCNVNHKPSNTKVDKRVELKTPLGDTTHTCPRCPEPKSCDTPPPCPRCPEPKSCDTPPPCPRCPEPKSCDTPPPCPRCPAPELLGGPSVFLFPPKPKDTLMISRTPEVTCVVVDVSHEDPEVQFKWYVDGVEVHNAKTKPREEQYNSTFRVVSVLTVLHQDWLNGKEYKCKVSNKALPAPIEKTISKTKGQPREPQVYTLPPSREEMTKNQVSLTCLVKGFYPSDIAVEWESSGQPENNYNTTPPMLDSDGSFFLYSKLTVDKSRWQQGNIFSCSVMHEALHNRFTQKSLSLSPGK

Fc protein = settings: from buffer solution and tobacco extract; cited from earlier work
[4] = fraction: Elution (100 mM Tris, pH 9.1)

Molecule	Kd (Goat albumin; PBS, pH 7.4, […] NaCl) [µM]	Kd (Goat albumin; phosphate, pH 6.2, O M NaCl) [µM]	binding to chicken ovalbumin (chicken ovalbumin)	Total Capacity (HSA [1]) [mg/mL]	μg HSA (HSA [1]; [4]) [µg]	μg HSA (HSA [1]; fraction: Flow through, pH 6.2) [µg]	Kd (human IgG1; IgG1, pH 7.4) [µM]	Kd (human IgG1; human IgG1, pH 5.7) [µM]	other results
CC[C@H](C)[C@@H]1NC(=O)[C@H](CCCNC(=N)N)NC(=O)[C@H](CC(=O)O)NC(=O)[C@@H](NC(=O)[C@H](Cc2ccccc2)NC(=O)[C@H](Cc2c[nH]c3ccccc23)NC(=O)[C@H](Cc2ccccc2)NC(=O)[C@H](CC(=O)O)NC(=O)CNC(=O)[C@@H](NC(=O)CNC(=O)[C@H](CCC(=O)O)NC(=O)[C@H](C)NC(C)=O)[C@@H](C)O)CSSC[C@@H](C(=O)N[C@@H](CCC(=O)O)C(=O)N[C@@H](Cc2ccccc2)C(=O)N[C@@H](CC(C)C)C(=O)N[C@@H](CC(=O)O)C(=O)N2CCC[C@H]2C(=O)N[C@@H](CCC(=O)O)C(=O)NCC(=O)NCC(=O)NCC(=O)N[C@@H](CCCCN)C(N)=O)NC(=O)[C@H](CC(C)C)NC(=O)[C@H](Cc2c[nH]cn2)NC(=O)[C@H](CCC(N)=O)NC(=O)[C@@H]2CCCN2C(=O)[C@H](Cc2ccc(O)cc2)NC(=O)[C@H](Cc2c[nH]c3ccccc23)NC(=O)[C@H](C)NC1=O [DX-236]	23	1.6	neither peptide showed any significant binding	>2.7	947	0			
CC[C@H](C)[C@@H]1NC(=O)[C@H](Cc2c[nH]c3ccccc23)NC(=O)[C@H](CO)NC(=O)[C@H](Cc2ccccc2)NC(=O)[C@H](CCCCN)NC(=O)[C@@H](NC(=O)[C@H](CCSC)NC(=O)[C@H](CC(N)=O)NC(=O)[C@H](CCCNC(=N)N)NC(=O)[C@H](CC(=O)O)NC(=O)CNC(=O)[C@@H](NC(=O)CNC(=O)[C@H](CCC(=O)O)NC(=O)[C@H](C)NC(C)=O)[C@@H](C)O)CSSC[C@@H](C(=O)N[C@@H](C)C(=O)N[C@@H](CCCNC(=N)N)C(=O)N[C@@H](C)C(=O)N[C@@H](CC(=O)O)C(=O)N2CCC[C@H]2C(=O)N[C@@H](CCC(=O)O)C(=O)NCCCCCC(=O)N[C@@H](CCCCN)C(N)=O)NC(=O)[C@H](Cc2ccccc2)NC(=O)[C@H](C)NC(=O)[C@@H]2CCCN2C(=O)[C@H](CO)NC(=O)[C@H](CCCNC(=N)N)NC1=O [DX-321]	83	95	neither peptide showed any significant binding	>1.1	370	554			KD (HSA [2]): submicromolar; Kd ([3]; PBS, pH 7.4, 0.14 M NaCl): > 200 µM; Kd ([3]; phosphate, pH 6.2, O M NaCl): > 200 µM
AGYYWCNYWGLCPDQGTPGPEGGGK [DX254]							< 2	< 0.1	Kd (human IgG1; human IgG1, pH 9.3): < 1 µM
GDDDHCYWFREWFNSECPHGEPGPEGGGK [DX252]									Kd (human IgG3): < 0.1 µM
GDDHMCVYTTWGELIWCDNHEPGPEGGGK [DX249]							< 0.5	< 0.1	
GDRRACSRDWSGALVWCAGHEPGPEGGGK [DX253]									capture efficiency (quantitative binding of Fc protein) (Fc protein): > 90 % of total load
